{"source": "paper PMC3269340", "about": "“Pharmacokinetics of memantine in rats and mice” (PLoS Currents, 2012)", "target": "T1, human OAT3 (Homo sapiens, UniProt Q8TCC7)", "T1 construct": "expressed in transfected cells", "T1 sequence (Q8TCC7 1-542)": "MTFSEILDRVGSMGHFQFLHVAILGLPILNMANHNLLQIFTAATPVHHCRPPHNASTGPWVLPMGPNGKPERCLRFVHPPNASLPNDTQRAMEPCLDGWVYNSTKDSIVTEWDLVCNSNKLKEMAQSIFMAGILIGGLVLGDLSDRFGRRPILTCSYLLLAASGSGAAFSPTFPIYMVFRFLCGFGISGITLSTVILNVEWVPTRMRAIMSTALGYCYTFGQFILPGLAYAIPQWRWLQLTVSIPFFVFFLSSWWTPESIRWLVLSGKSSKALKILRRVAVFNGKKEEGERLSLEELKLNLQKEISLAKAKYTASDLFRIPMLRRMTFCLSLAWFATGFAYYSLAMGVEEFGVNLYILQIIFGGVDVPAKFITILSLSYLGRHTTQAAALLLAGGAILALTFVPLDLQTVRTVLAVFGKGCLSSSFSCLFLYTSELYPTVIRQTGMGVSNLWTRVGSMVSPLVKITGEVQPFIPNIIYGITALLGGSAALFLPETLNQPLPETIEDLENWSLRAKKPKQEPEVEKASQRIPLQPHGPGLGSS", "assay": "Indirect uptake transporter assay, OAT3", "format": "in vitro ADME", "set-up": "key to Maximal Inhibition: ND: Not Determined (< 50% inhibition); NDe: Not Decisive (Activation or inhibition > 25% of the baseline but no trend observed); NIO: No Interaction Observed (< 20% inhibition)", "excerpt": "To determine whether memantine is an inhibitor of the human OATP2B1 (OATP-B), OCT1, OCT2, OAT3, PEPT1, PEPT2 uptake transporters. The standard uptake transporter assay is an indirect, inhibitory-type screening assay, performed with cold test article, which in this case was memantine. It provides information on any interaction (substrate or inhibitor) between selected uptake transporters and memantine that would affect the transport of the reporter compound. […] A radiolabeled reporter substrate is transported into the cells transfected with the selected human uptake transporter, and the inhibitory effect of memantine on the transport of this reporter substrate is measured. Values are presented on a relative scale; 100% defined as transport in the presence of the solvent and without memantine (no inhibition), and 0% defined as transport detected without transporter activity. IC50 is defined as the concentration required to inhibit the transport of the reporter substrate by 50%.\nThe uptake transporter assay was carried out under the conditions described in the table below, with either CHO cells or MDCKII cells stably expressing the respective uptake transporter.\nDuplicate incubations of memantine (0 or DMSO control, 0.41, 1.2, 3.7, 11, 33, 100 and 300 µM) were conducted per concentration on transfected and in parental cells. A reference inhibitor (positive control, duplicate) was incubated in transfected cells.\nCHO cells were cultured in a 1:1 mixture of Dubelcco’s Modified Eagle’s Medium (DMEM, Lonza, Allendale, NJ) and Ham's F-12 (F-12, Lonza, Allendale, NJ) and MDCKII cells in DMEM at 37°C in an atmosphere of 95:5 air:CO2. […]\nAfter the experiment cells were rinsed with 2 x 100µl of Krebs-Henseleit buffer and lysed with 50 µl of 0.1M NaOH. ^3H-estrone-3-sulfate, ^14C-TEA, ^14C-metformin and ^3H-Gly-Sar transport was determined by total radioactivity by transferring an aliquot (35µl) from each well to a vial containing liquid scintillant for analysis.", "data": [{"smiles": "CC12CC3CC(C)(C1)CC(N)(C3)C2", "note": "[memantine]", "values": [{"measurement": "interaction with OAT3 mediated estrone-3-sulfate transport", "value": "did not interact"}, {"measurement": "Maximal Inhibition", "setting": "OAT3, up to 300 µM", "value": "NDe"}, {"measurement": "IC50", "setting": "OAT3, probe printed in Table 5: Metformin (2µM), methods and text: E3S", "value": "ND (Not Determined (< 50% inhibition))"}]}]}
